The subject of one data set is P. acnes. It is filed as cell-based, Propionibacterium acnes.
The test system of data set [1] is EpiDerm (EPI-200) skin tissue. The experiment in a line: Skin tissue toxicity, EpiDerm skin model with MTT assay. The format is cell-based. Particulars: tissue viability (MTT), treated 20 hr. As for the experimental part: 4. Skin tissue toxicity determination. Skin toxicity and compatibility was determined using EpiDerm (EPI-200) skin tissue and MTT Kit (MTT-100) (MatTek, Ashland, Mass.) according to the manufacture's instruction. 1% Triton X-100 and PBS were used as positive (toxic) and negative (non-toxic) control, respectively.
Potential for dermal irritancy of the lipodipeptides was tested using EpiDerm™ Skin Model (MatTek, Ashland, Mass.) in combination with a modified MTT assay. […] EpiDerm™ consists of organized basal, spinous, granular, and cornified layers analogous to those found in vivo. The tissues were treated with each compound at desired concentration for 20 hr.

Data set [2] has as its system S. aureus SAP0017 (MRSA). It is filed as cell-based, Staphylococcus aureus. Conditions: for logs of S. aureus eradicated in a kill assay: SAP0017. As for the experimental part:
(§1) 3. […] The minimal inhibitory concentration (MIC) of each peptide was determined using modified CLSI microtiter broth dilution assay (Methods for Dilution Antimicrobial Susceptibility Tests for Bacteria That Grow Aerobically; Approved Standard—Ninth Edition). An inoculum of 10^5-10^6 colony forming units (CFU)/ml was used or 10^4 CFU/ml for yeast. The MIC value was taken as the lowest peptide concentration at which more than 90% of microbial growth was inhibited after 15 to 20 h of incubation at 37° C. For P. acnes, the incubation was kept under anaerobic condition at 37° C. for 2 weeks before MIC was determined Kill kinetics was performed using a given concentration (about 2-5-fold MIC) of peptide mixed with indicator microorganism. After appropriate dilution the cells were plated on agar plates after defined time intervals and incubated at 37° C. overnight. In the case of P. acnes an extended incubation period was required. The CFU was counted and plotted as survival of bacteria after peptide treatment over time, which indicates the effectiveness of a peptide to kill a microbe.

Another data set concerns P. acnes ATCC11827. The experiment in a line: Kill kinetics in PBS. The format is cell-based, Propionibacterium acnes. Conditions: detection limit 10 CFU/ml. As for the experimental part: as §1
Data set [3] has as its system S. aureus SAP0017 (MRSA).
Data set [4] has as its system histamine induced IL-6 expression. Nature of the data set: Anti-inflammatory activity in keratinocytes (data not shown). It is filed as cell-based. Particulars: human skin keratinocytes. The source says: We modified both peptides via N-terminal acetylation with lipids of various lengths to the alpha amino group of KPV and KdPT.
For data set [5], the system named is C. albicans strain SC5314. Particulars: Rauch et al. 2009; cited from earlier work.
In data set [6] the test system is S. aureus and C. albicans. Conditions: Cutuli et al. 2000, no MIC determined; cited from earlier work.

Converted amounts (≈) assume the structure as drawn. Where a SMILES comes first, the peptide text is derived from it. [ ]: non-standard residue; d: D form. The star is where a group is joined. Palmitoyl = CCCCCCCCCCCCCCCC(=O)*

On to `CCCCCCCCCCCCCCCC(=O)N[C@@H](CCCCN)C(=O)N1CCC[C@@H]1C(=O)N[C@H](C(N)=O)[C@@H](C)O` [HB2178, Pal-K-dPT-NH2] (Palmitoyl-Lys-[dP]-Thr-NH2), for which the “MIC C. albicans” value with C. albicans 105 was 16 µg/mL (≈ 0.0275 mM). In addition, the “MIC P. acnes” value in the data set on P. acnes stood at 2 µg/mL (≈ 0.00344 mM). Also, the “Toxicity EpiDerm” value in data set [1] is over 2000 µg/mL. For the same molecule, the “survival of microbes (CFU/ml), 0 hr” value in the data set with S. aureus SAP0017 (MRSA) [2] (S. aureus in PBS, 0 hr, detection limit 10 CFU/ml) is recorded as 23050000 CFU/ml; in the data set on P. acnes ATCC11827 (0 hr), 750000 CFU/ml. The “survival of microbes (CFU/ml), 20 min” value with S. aureus SAP0017 (MRSA) [2] (S. aureus in PBS, 20 min, detection limit 10 CFU/ml) was under 10 CFU/ml; in the data set with P. acnes ATCC11827 (20 min) it was 20 CFU/ml. Also, the “survival of microbes (CFU/ml), 1 hr” value in the data set on S. aureus SAP0017 (MRSA) [2] (S. aureus in PBS, 1 hr, detection limit 10 CFU/ml) is listed as under 10 CFU/ml; in the data set on P. acnes ATCC11827 (1 hr), under 10 CFU/ml. In addition, the “survival of microbes (CFU/ml), 2 hr” value in the data set on S. aureus SAP0017 (MRSA) [2] (S. aureus in PBS, 2 hr, detection limit 10 CFU/ml) is on record as under 10 CFU/ml; with P. acnes ATCC11827 (2 hr) it was under 10 CFU/ml. In addition, the “survival of microbes (CFU/ml), 3 hr” value in the data set on S. aureus SAP0017 (MRSA) [2] (S. aureus in PBS, 3 hr, detection limit 10 CFU/ml) is given as under 10 CFU/ml; in the data set with P. acnes ATCC11827 (3 hr), under 10 CFU/ml. The “logs of S. aureus eradicated in a kill assay” value with S. aureus SAP0017 (MRSA) [2] is given as 5-6 logs.
Turning to `CCCCCCCCCCCCCCCC(=O)N[C@@H](CCCCN)C(=O)N1CCC[C@H]1C(=O)N[C@@H](C)C(N)=O` [HB2208, Pal-KPA-NH2] (Palmitoyl-Lys-Pro-Ala-NH2), the “MIC C. albicans” value in the data set on C. albicans 105 worked out at 16 µg/mL (≈ 0.029 mM). The “MIC E. coli” value against E. coli UB1005 is 128 µg/mL (≈ 0.232 mM). Also, the “MIC S. aureus” value in the data set on S. aureus SAP0017 (MRSA) [3] came out at 16 µg/mL (≈ 0.029 mM). Also, the “MIC P. acnes” value against P. acnes worked out at 1 µg/mL (≈ 0.00181 mM). Also, the “Toxicity EpiDerm” value in data set [1] is over 2000 µg/mL. Besides, the “logs of S. aureus eradicated in a kill assay” value in the data set with S. aureus SAP0017 (MRSA) [2] is reported as 5-6 logs.
Turning to `NCCCC[C@H](N)C(=O)N1CCC[C@H]1C(N)=O` [HB2230, KP-NH2] (H-Lys-Pro-NH2; N-terminus assumed), the “MIC C. albicans” value against C. albicans 105 is over 2000 µg/mL. Moreover, the “MIC E. coli” value against E. coli UB1005 is over 2000 µg/mL. In addition, the “MIC S. aureus” value in the data set with S. aureus SAP0017 (MRSA) [3] is over 2000 µg/mL. Also, the “MIC P. acnes” value with P. acnes was over 2000 µg/mL. The “anti-inflammatory activity against histamine induced IL-6 expression” value in [4] is on record as “moderate anti-inflammatory activity”.
`NCCCC[C@H](N)C(=O)N1CCC[C@@H]1C(N)=O` [HB2231, K-dP-NH2] (H-Lys-[dP]-NH2; N-terminus assumed): in the data set with C. albicans 105, the “MIC C. albicans” value was over 2000 µg/mL. Besides, the “MIC E. coli” value against E. coli UB1005 was over 2000 µg/mL. Moreover, the “MIC S. aureus” value in the data set on S. aureus SAP0017 (MRSA) [3] was over 2000 µg/mL. In the data set with P. acnes, the “MIC P. acnes” value was over 2000 µg/mL. The “anti-inflammatory activity against histamine induced IL-6 expression” value in data set [4] is given as “moderate anti-inflammatory activity”.
In the case of lysine-proline-valine [KPV], the “concentration up to which yeast growth was not inhibited” value in data set [5] is over 100 µM. Moreover, in data set [6], the “antimicrobial activity in phosphate buffer” value is listed as “antimicrobial activity”.

The values are drawn from US9278994B2, “Short antimicrobial lipopeptides” (Helix BioMedix Inc., priority 2012, dated 2016).
